Where a SMILES comes first, the peptide text is derived from it.
Columns and labels:
[1] = biological target: Coagulation Factor Xa, from uman plasma (Homo sapiens, UniProt P00742); experiment: Enzymatic assay, coagulation factor Xa
[2] = biological target: Trypsin, from human pancreas (Homo sapiens, UniProt P07477); experiment: Enzymatic assay, trypsin; conditions: at 100 μM
[3] = biological target: Urokinase from human urine (Homo sapiens, UniProt P00749); experiment: Enzymatic assay, urokinase
[4] = biological target: Thrombin, from Human Plasma (Homo sapiens, UniProt P00734); experiment: Enzymatic assay, thrombin
Chymase, from human skin = biological target: T1, Chymase, from human skin (Homo sapiens, UniProt P23946); experiment: Enzymatic assay, chymase
T1 sequence (P23946 22-247): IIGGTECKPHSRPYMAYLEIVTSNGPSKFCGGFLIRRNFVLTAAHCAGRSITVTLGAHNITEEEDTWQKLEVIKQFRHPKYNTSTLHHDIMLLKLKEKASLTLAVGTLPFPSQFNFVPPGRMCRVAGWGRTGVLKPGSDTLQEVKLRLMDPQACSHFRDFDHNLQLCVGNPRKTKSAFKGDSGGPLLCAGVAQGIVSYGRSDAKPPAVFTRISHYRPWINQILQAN

[5] = biological target: T2, CathepsinG, from human neutrophils (Homo sapiens, UniProt P08311); experiment: Enzymatic assay, cathepsin G; conditions: for IC50: Cathepsin G IC50
T2 sequence (P08311 21-244): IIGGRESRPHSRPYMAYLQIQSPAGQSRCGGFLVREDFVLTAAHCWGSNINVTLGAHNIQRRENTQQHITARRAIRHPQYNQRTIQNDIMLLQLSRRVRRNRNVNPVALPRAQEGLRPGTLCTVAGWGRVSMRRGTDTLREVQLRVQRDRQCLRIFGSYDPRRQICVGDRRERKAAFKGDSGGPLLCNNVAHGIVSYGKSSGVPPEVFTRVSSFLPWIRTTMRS

[6] = biological target: T3, Elastase from human neutrophils (Homo sapiens, UniProt P08246); experiment: Enzymatic assay, elastase; conditions: Elastase IC50
T3 sequence (P08246 30-267): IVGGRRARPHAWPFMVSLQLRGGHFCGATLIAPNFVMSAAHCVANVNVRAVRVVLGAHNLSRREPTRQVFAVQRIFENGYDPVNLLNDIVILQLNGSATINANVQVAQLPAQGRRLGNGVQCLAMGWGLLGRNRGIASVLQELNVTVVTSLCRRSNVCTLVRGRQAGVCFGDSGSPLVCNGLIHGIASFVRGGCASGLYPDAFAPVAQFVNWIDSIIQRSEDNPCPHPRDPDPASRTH

[7] = test system: Tryptase, from human lung; experiment: Enzymatic assay, tryptase; conditions: at 100 μM
[8] = biological target: Chymotrypsin, from human pancreas (Homo sapiens, UniProt P17538); experiment: Enzymatic assay, chymotrypsin; conditions: at 100 μM
Chain of Chymotrypsin, from human pancreas (P17538 19-263): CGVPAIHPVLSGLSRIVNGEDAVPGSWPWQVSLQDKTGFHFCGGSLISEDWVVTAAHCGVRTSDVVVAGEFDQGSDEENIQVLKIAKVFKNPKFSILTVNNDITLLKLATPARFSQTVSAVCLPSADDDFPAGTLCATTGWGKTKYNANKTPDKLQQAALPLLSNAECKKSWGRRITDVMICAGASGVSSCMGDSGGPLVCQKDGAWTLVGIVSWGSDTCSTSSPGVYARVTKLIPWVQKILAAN

Chain of Coagulation Factor Xa, from uman plasma (P00742 235-488 limits assumed): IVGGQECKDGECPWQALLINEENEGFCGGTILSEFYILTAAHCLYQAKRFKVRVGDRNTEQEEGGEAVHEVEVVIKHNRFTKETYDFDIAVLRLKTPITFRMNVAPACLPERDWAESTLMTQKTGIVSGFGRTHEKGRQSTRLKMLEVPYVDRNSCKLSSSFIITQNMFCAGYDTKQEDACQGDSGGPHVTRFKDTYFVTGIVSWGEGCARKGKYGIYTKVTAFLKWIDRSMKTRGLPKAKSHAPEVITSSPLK
Chain of Coagulation Factor Xa, from uman plasma (P00742 41-179 limits assumed): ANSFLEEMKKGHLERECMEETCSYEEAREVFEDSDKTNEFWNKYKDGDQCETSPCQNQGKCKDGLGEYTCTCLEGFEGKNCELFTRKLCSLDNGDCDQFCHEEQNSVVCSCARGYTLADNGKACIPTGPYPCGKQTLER

Structure (SMILES)	FXa at 100 μM % [1]	Trypsin at 100 μM % [2]	Urokinase at 100 μM % [3]	Thrombin at 100 μM % [4]	Chymase at 100 μM % (Chymase, from human skin)	Cathepsin G at 100 μM % [5]	IC50 [6]	Tryptase At 100 μM % [7]	Chymotrypsin at 100 μM % [8]	IC50 [5]	Tryptase at 100 μM % [7]
CC[C@H](C)[C@@H]1NC(=O)[C@H](CO)NC(=O)[C@H](C)NC(=O)[C@H]([C@@H](C)O)NC(=O)[C@@H]2CSSC[C@H](NC(=O)[C@H](CCC(N)=O)NC(=O)[C@@H]3CCCN3C(=O)[C@@H]3CCCN3C1=O)C(=O)N[C@@H](CCC(N)=O)C(=O)N1CCC[C@@H]1C(=O)N1CCC[C@H]1C(=O)N[C@@H](CCc1ccccc1)C(=O)N2 [Ex. 143] (HELM PEPTIDE1{[O=C([C@H](CCc1ccccc1)N[*:1])[*:2]].C.T.A.S.I.P.P.Q.C.Q.[dP].P}$PEPTIDE1,PEPTIDE1,2:R3-10:R3|PEPTIDE1,PEPTIDE1,1:R1-13:R2$$$V2.0)	0%	12%	8%	12%	0%	28 at 100%	15 nM	18%	91%	–	–
CCCCCCCC[C@@H]1NC(=O)[C@@H]2CCCN2C(=O)[C@H]2CCCN2C(=O)[C@H](CCC(N)=O)NC(=O)[C@@H]2CSSC[C@H](NC1=O)C(=O)N[C@@H]([C@@H](C)O)C(=O)N[C@@H](C)C(=O)N[C@@H](CO)C(=O)N[C@@H](CCCCCCCC)C(=O)N1CCC[C@H]1C(=O)N1CCC[C@H]1C(=O)N[C@@H](CCC(N)=O)C(=O)N2 [Ex. 148] (HELM PEPTIDE1{[CCCCCCCC[C@H](N[*:1])C(=O)[*:2]].C.T.A.S.[CCCCCCCC[C@H](N[*:1])C(=O)[*:2]].P.P.Q.C.Q.[dP].P}$PEPTIDE1,PEPTIDE1,2:R3-10:R3|PEPTIDE1,PEPTIDE1,1:R1-13:R2$$$V2.0)	8%	9%	12%	32%	7%	52 at 100%	11 nM	30%	91%	–	–
CCCC[C@@H]1NC(=O)[C@@H]2CCCN2C(=O)[C@H]2CCCN2C(=O)[C@H](Cc2ccc(O)cc2)NC(=O)[C@@H]2CSSC[C@H](NC1=O)C(=O)N[C@@H]([C@@H](C)O)C(=O)N[C@@H](C)C(=O)N[C@@H](CO)C(=O)N[C@@H]([C@@H](C)CC)C(=O)N1CCC[C@H]1C(=O)N1CC(NC(=O)c3ccccc3)C[C@H]1C(=O)N[C@@H](CCC(N)=O)C(=O)N2 (single isomer, unassigned) [Ex. 138]	12.6%	12.2%	14.4%	17.1%	4.6%	–	19 nM	0%	77.1%	43900 nM	–
CCCCCCCC[C@@H]1NC(=O)[C@H](CCC(N)=O)NC(=O)[C@H]2CCCN2C(=O)[C@H](Cc2ccc(O)cc2)NC(=O)[C@@H]2CSSC[C@H](NC1=O)C(=O)N[C@@H]([C@@H](C)O)C(=O)N[C@@H](C)C(=O)N[C@@H](CO)C(=O)N[C@@H]([C@@H](C)CC)C(=O)N1CCC[C@H]1C(=O)N1CCC[C@H]1C(=O)N[C@@H](CCC(N)=O)C(=O)N2 [compound 177] (HELM PEPTIDE1{[CCCCCCCC[C@H](N[*:1])C(=O)[*:2]].C.T.A.S.I.P.P.Q.C.Y.[dP].Q}$PEPTIDE1,PEPTIDE1,2:R3-10:R3|PEPTIDE1,PEPTIDE1,1:R1-13:R2$$$V2.0)	7%	5%	12%	17%	3%	54 at 100%	7 nM	15%	86%	–	–
CCCCCCCC[C@@H]1NC(=O)[C@@H]2CCCN2C(=O)[C@H]2CCCN2C(=O)[C@H](Cc2ccc(O)cc2)NC(=O)[C@H](CCCCN)NC(=O)[C@H](CCC(N)=O)NC(=O)[C@@H]2CCCN2C(=O)[C@@H]2CCCN2C(=O)[C@H]([C@@H](C)CC)NC(=O)[C@H](CO)NC(=O)[C@H](C)NC(=O)[C@H]([C@@H](C)O)NC(=O)[C@H](CCC(=O)O)NC1=O [Ex. 156] (HELM PEPTIDE1{[CCCCCCCC[C@H](N[*:1])C(=O)[*:2]].E.T.A.S.I.P.P.Q.K.Y.[dP].P}$PEPTIDE1,PEPTIDE1,1:R1-13:R2$$$V2.0)	0%	0%	7%	17%	0%	46 at 100%	7.5 nM	15%	5%	–	–
CCCCCCCC[C@@H]1NC(=O)[C@@H]2CCCN2C(=O)[C@H]2CCCN2C(=O)[C@H](Cc2ccc(O)cc2)NC(=O)[C@H]([C@@H](C)O)NC(=O)[C@H](CCC(N)=O)NC(=O)[C@@H]2CCCN2C(=O)[C@@H]2CCCN2C(=O)[C@H]([C@@H](C)CC)NC(=O)[C@H](CO)NC(=O)[C@H](C)NC(=O)[C@H]([C@@H](C)O)NC(=O)[C@H](CCC(N)=O)NC1=O [Ex. 154] (HELM PEPTIDE1{[CCCCCCCC[C@H](N[*:1])C(=O)[*:2]].Q.T.A.S.I.P.P.Q.T.Y.[dP].P}$PEPTIDE1,PEPTIDE1,1:R1-13:R2$$$V2.0)	0%	0%	1%	7%	0%	27 at 100%	8.3 nM	15%	4%	–	–
CCCCCCCC[C@@H]1NC(=O)[C@H](CO)NC(=O)[C@H](C)NC(=O)[C@H]([C@@H](C)O)NC(=O)[C@@H]2CSSC[C@H](NC(=O)[C@H](CCC(N)=O)NC(=O)[C@@H]3CCCN3C(=O)[C@@H]3CCCN3C1=O)C(=O)N[C@@H](CCC(N)=O)C(=O)N1CCC[C@@H]1C(=O)N1CCC[C@H]1C(=O)N[C@@H](CCc1ccccc1)C(=O)N2 [Ex. 153] (HELM PEPTIDE1{[O=C([C@H](CCc1ccccc1)N[*:1])[*:2]].C.T.A.S.[CCCCCCCC[C@H](N[*:1])C(=O)[*:2]].P.P.Q.C.Q.[dP].P}$PEPTIDE1,PEPTIDE1,2:R3-10:R3|PEPTIDE1,PEPTIDE1,1:R1-13:R2$$$V2.0)	11%	8%	16%	16%	0%	56 at 100%	8.5 nM	9%	84%	–	–
CC[C@H](C)[C@@H]1NC(=O)[C@@H]2CCCN2C(=O)[C@@H]2CCCN2C(=O)[C@H](CC(=O)O)NC(=O)[C@H](CO)NC(=O)[C@H](CCCCN)NC(=O)[C@H]([C@@H](C)O)NC(=O)[C@@H]2CSSC[C@H](NC1=O)C(=O)N[C@@H](CC(=O)O)C(=O)N1CCC[C@@H]1C(=O)N1CCC[C@H]1C(=O)N[C@@H](Cc1ccccc1)C(=O)N2 [Ex. 2] (HELM PEPTIDE1{F.C.T.K.S.D.P.P.I.C.D.[dP].P}$PEPTIDE1,PEPTIDE1,2:R3-10:R3|PEPTIDE1,PEPTIDE1,1:R1-13:R2$$$V2.0)	5.3%	92%	0.9%	9.2%	0%	–	> 100000 nM	–	2.9%	84 nM	39.6%
CCCCCCCC[C@@H]1NC(=O)[C@H](CO)NC(=O)[C@H](C)NC(=O)[C@H]([C@@H](C)O)NC(=O)[C@@H]2CSSC[C@H](NC(=O)[C@H](CCC(N)=O)NC(=O)[C@@H]3CCCN3C(=O)[C@@H]3CCCN3C1=O)C(=O)N[C@@H](Cc1ccc(O)cc1)C(=O)N1CCC[C@@H]1C(=O)N[C@@H](CCC(N)=O)C(=O)N[C@@H](CCCC)C(=O)N2 [compound 169] (HELM PEPTIDE1{[Nle].C.T.A.S.[CCCCCCCC[C@H](N[*:1])C(=O)[*:2]].P.P.Q.C.Y.[dP].Q}$PEPTIDE1,PEPTIDE1,2:R3-10:R3|PEPTIDE1,PEPTIDE1,1:R1-13:R2$$$V2.0)	13.3%	10.8%	10.4%	20.6%	0%	–	18 nM	4.2%	79.6%	20300 nM	–
